Assay results: PubChem BioAssay (NCI)
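Cells were grown in 96-well plates and exposed to each compound for 48 hours at five concentrations; endpoints were interpolated linearly between bracketing concentrations, or set to the highest concentration if not reached. GI50: concentration for 50% inhibition of growth. At the TGI there is no net growth.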

Tests used:
Experiment in all cases: NCI-60 cell line screen, 48 h
HCC-2998 colon = tested on: HCC-2998 colon
MCF7 breast = tested on: MCF7 breast
DU-145 prostate = tested on: DU-145 prostate
NCI-H460 lung = tested on: NCI-H460 lung
SK-MEL-28 melanoma = tested on: SK-MEL-28 melanoma
NCI/ADR-RES ovarian = tested on: NCI/ADR-RES ovarian
786-0 renal = tested on: 786-0 renal
OVCAR-8 ovarian = tested on: OVCAR-8 ovarian
COLO 205 colon = tested on: COLO 205 colon
MDA-MB-435 = tested on: MDA-MB-435
A498 renal = tested on: A498 renal
HL-60(TB) leukemia = tested on: HL-60(TB) leukemia
KM12 colon = tested on: KM12 colon
HCT-116 colon = tested on: HCT-116 colon
HOP-62 NSCLC = tested on: HOP-62 NSCLC
NCI-H226 lung = tested on: NCI-H226 lung
UO-31 renal = tested on: UO-31 renal
EKVX NSCLC = tested on: EKVX NSCLC
SN12C renal = tested on: SN12C renal
UACC-257 melanoma = tested on: UACC-257 melanoma
HCT-15 colon = tested on: HCT-15 colon
HOP-92 NSCLC = tested on: HOP-92 NSCLC
T-47D breast = tested on: T-47D breast
LOX IMVI melanoma = tested on: LOX IMVI melanoma
CAKI-1 renal = tested on: CAKI-1 renal
SK-OV-3 ovarian = tested on: SK-OV-3 ovarian
SF-295 CNS = tested on: SF-295 CNS
RPMI-8226 leukemia = tested on: RPMI-8226 leukemia
SNB-19 CNS = tested on: SNB-19 CNS
M14 melanoma = tested on: M14 melanoma
UACC-62 melanoma = tested on: UACC-62 melanoma
IGROV1 ovarian = tested on: IGROV1 ovarian
SF-539 CNS = tested on: SF-539 CNS
TK-10 renal = tested on: TK-10 renal
BT-549 breast = tested on: BT-549 breast
CCRF-CEM leukemia = tested on: CCRF-CEM leukemia
MOLT-4 leukemia = tested on: MOLT-4 leukemia
OVCAR-5 ovarian = tested on: OVCAR-5 ovarian
SW-620 colon = tested on: SW-620 colon
ACHN renal = tested on: ACHN renal
SF-268 CNS = tested on: SF-268 CNS
OVCAR-4 ovarian = tested on: OVCAR-4 ovarian
HS 578T breast = tested on: HS 578T breast
K-562 leukemia = tested on: K-562 leukemia
NCI-H23 lung = tested on: NCI-H23 lung
SR leukemia = tested on: SR leukemia
NCI-H522 lung = tested on: NCI-H522 lung
SNB-75 CNS = tested on: SNB-75 CNS
PC-3 prostate = tested on: PC-3 prostate
SK-MEL-2 melanoma = tested on: SK-MEL-2 melanoma
U251 CNS = tested on: U251 CNS
HT29 colon = tested on: HT29 colon
A549 NSCLC = tested on: A549 NSCLC
OVCAR-3 ovarian = tested on: OVCAR-3 ovarian
MALME-3M melanoma = tested on: MALME-3M melanoma
MDA-MB-231 breast = tested on: MDA-MB-231 breast
RXF 393 renal = tested on: RXF 393 renal
SK-MEL-5 melanoma = tested on: SK-MEL-5 melanoma

Compound: CC(=O)N1CCC(Nc2cc(C(=O)NC[C@H](O)CN3CCc4ccccc4C3)ncn2)CC1
- GI50 (HCC-2998 colon): > 100 µM
- TGI (HCC-2998 colon): > 100 µM
- GI50 (MCF7 breast): > 100 µM
- TGI (MCF7 breast): > 100 µM
- GI50 (DU-145 prostate): > 100 µM
- TGI (DU-145 prostate): > 100 µM
- GI50 (NCI-H460 lung): > 100 µM
- TGI (NCI-H460 lung): > 100 µM
- GI50 (SK-MEL-28 melanoma): > 100 µM
- TGI (SK-MEL-28 melanoma): > 100 µM
- GI50 (NCI/ADR-RES ovarian): > 100 µM
- TGI (NCI/ADR-RES ovarian): > 100 µM
- GI50 (786-0 renal): > 100 µM
- TGI (786-0 renal): > 100 µM
- GI50 (OVCAR-8 ovarian): > 100 µM
- TGI (OVCAR-8 ovarian): > 100 µM
- GI50 (COLO 205 colon): > 100 µM
- TGI (COLO 205 colon): > 100 µM
- GI50 (MDA-MB-435): > 100 µM
- TGI (MDA-MB-435): > 100 µM
- GI50 (A498 renal): > 100 µM
- TGI (A498 renal): > 100 µM
- GI50 (HL-60(TB) leukemia): > 100 µM
- TGI (HL-60(TB) leukemia): > 100 µM
- GI50 (KM12 colon): > 100 µM
- TGI (KM12 colon): > 100 µM
- GI50 (HCT-116 colon): > 100 µM
- TGI (HCT-116 colon): > 100 µM
- GI50 (HOP-62 NSCLC): > 100 µM
- TGI (HOP-62 NSCLC): > 100 µM
- GI50 (NCI-H226 lung): > 100 µM
- TGI (NCI-H226 lung): > 100 µM
- GI50 (UO-31 renal): > 100 µM
- TGI (UO-31 renal): > 100 µM
- GI50 (EKVX NSCLC): > 100 µM
- TGI (EKVX NSCLC): > 100 µM
- GI50 (SN12C renal): > 100 µM
- TGI (SN12C renal): > 100 µM
- GI50 (UACC-257 melanoma): > 100 µM
- TGI (UACC-257 melanoma): > 100 µM
- GI50 (HCT-15 colon): > 100 µM
- TGI (HCT-15 colon): > 100 µM
- GI50 (HOP-92 NSCLC): 91.9 µM
- TGI (HOP-92 NSCLC): > 100 µM
- GI50 (T-47D breast): > 100 µM
- TGI (T-47D breast): > 100 µM
- GI50 (LOX IMVI melanoma): > 100 µM
- TGI (LOX IMVI melanoma): > 100 µM
- GI50 (CAKI-1 renal): > 100 µM
- TGI (CAKI-1 renal): > 100 µM
- GI50 (SK-OV-3 ovarian): > 100 µM
- TGI (SK-OV-3 ovarian): > 100 µM
- GI50 (SF-295 CNS): > 100 µM
- TGI (SF-295 CNS): > 100 µM
- GI50 (RPMI-8226 leukemia): > 100 µM
- TGI (RPMI-8226 leukemia): > 100 µM
- GI50 (SNB-19 CNS): > 100 µM
- TGI (SNB-19 CNS): > 100 µM
- GI50 (M14 melanoma): > 100 µM
- TGI (M14 melanoma): > 100 µM
- GI50 (UACC-62 melanoma): > 100 µM
- TGI (UACC-62 melanoma): > 100 µM
- GI50 (IGROV1 ovarian): > 100 µM
- TGI (IGROV1 ovarian): > 100 µM
- GI50 (SF-539 CNS): > 100 µM
- TGI (SF-539 CNS): > 100 µM
- GI50 (TK-10 renal): > 100 µM
- TGI (TK-10 renal): > 100 µM
- GI50 (BT-549 breast): > 100 µM
- TGI (BT-549 breast): > 100 µM
- GI50 (CCRF-CEM leukemia): > 100 µM
- TGI (CCRF-CEM leukemia): > 100 µM
- GI50 (MOLT-4 leukemia): > 100 µM
- TGI (MOLT-4 leukemia): > 100 µM
- GI50 (OVCAR-5 ovarian): > 100 µM
- TGI (OVCAR-5 ovarian): > 100 µM
- GI50 (SW-620 colon): > 100 µM
- TGI (SW-620 colon): > 100 µM
- GI50 (ACHN renal): > 100 µM
- TGI (ACHN renal): > 100 µM
- GI50 (SF-268 CNS): > 100 µM
- TGI (SF-268 CNS): > 100 µM
- GI50 (OVCAR-4 ovarian): > 100 µM
- TGI (OVCAR-4 ovarian): > 100 µM
- GI50 (HS 578T breast): > 100 µM
- TGI (HS 578T breast): > 100 µM
- GI50 (K-562 leukemia): > 100 µM
- TGI (K-562 leukemia): > 100 µM
- GI50 (NCI-H23 lung): > 100 µM
- TGI (NCI-H23 lung): > 100 µM
- GI50 (SR leukemia): > 100 µM
- TGI (SR leukemia): > 100 µM
- GI50 (NCI-H522 lung): > 100 µM
- TGI (NCI-H522 lung): > 100 µM
- GI50 (SNB-75 CNS): > 100 µM
- TGI (SNB-75 CNS): > 100 µM
- GI50 (PC-3 prostate): > 100 µM
- TGI (PC-3 prostate): > 100 µM
- GI50 (SK-MEL-2 melanoma): > 100 µM
- TGI (SK-MEL-2 melanoma): > 100 µM
- GI50 (U251 CNS): > 100 µM
- TGI (U251 CNS): > 100 µM
- GI50 (HT29 colon): > 100 µM
- TGI (HT29 colon): > 100 µM
- GI50 (A549 NSCLC): > 100 µM
- TGI (A549 NSCLC): > 100 µM
- GI50 (OVCAR-3 ovarian): > 100 µM
- TGI (OVCAR-3 ovarian): > 100 µM
- GI50 (MALME-3M melanoma): > 100 µM
- TGI (MALME-3M melanoma): > 100 µM
- GI50 (MDA-MB-231 breast): > 100 µM
- TGI (MDA-MB-231 breast): > 100 µM
- GI50 (RXF 393 renal): > 100 µM
- TGI (RXF 393 renal): > 100 µM
- GI50 (SK-MEL-5 melanoma): > 100 µM
- TGI (SK-MEL-5 melanoma): > 100 µM
